# Where two headings read alike, the source gives them in different places. Residues, ends and D or L forms follow the SMILES beside them. *: point of attachment. ClAc = O=C(CCl)*
# How the values were obtained:
# HIV-1 [1] = settings: H9 cells
# Experimental: Compounds (a), (b), (c), (d) were tested in the molarity range from 0.1 μM to 1000 μM. Infectivity tests were carried out as follows: an HIV-1 suspension containing 10^2 infectious units was absorbed on to 5×10^6 H9 cells in a volume of 1 ml for 2 hours at 4° C. After this time, 9 ml of tissue culture medium with the required inhibitor concentration was added. The medium was exchanged with fresh medium plus inhibitor daily. Two control cultures were also prepared, one without inhibitor to determine the normal virus replication rate, the other containing inhibitor but no virus, to determine whether the substances were cytotoxic for H9 cells. […] The amount of virus antigen produced by the infected cells was measured daily using Elisa for eight days, indicating the amount of HIV-1 antigen in the tissue culture medium. After this, the cells were pelleted, washed in medium without inhibitor, and further incubated in inhibitor-less medium. The antigen production was measured on days 9 and 12 (ie 1 and […] after removal of the inhibitor). Virus production was also measured on days 7, 8, 9, and 12 by determining the amount of reverse transcriptase in the supernatant of the cell medium.
# H9 cells = experiment: Cytotoxicity for H9 cells, trypan blue colouration; type: cell-based; settings: culture with inhibitor but no virus, 0.1 μM to 1000 μM
# Experimental: (§1) Infectivity tests were carried out as follows: an HIV-1 suspension containing 10^2 infectious units was absorbed on to 5×10^6 H9 cells in a volume of 1 ml for 2 hours at 4° C. After this time, 9 ml of tissue culture medium with the required inhibitor concentration was added. The medium was exchanged with fresh medium plus inhibitor daily. Two control cultures were also prepared, one without inhibitor to determine the normal virus replication rate, the other containing inhibitor but no virus, to determine whether the substances were cytotoxic for H9 cells. […] The amount of virus antigen produced by the infected cells was measured daily using Elisa for eight days, indicating the amount of HIV-1 antigen in the tissue culture medium. After this, the cells were pelleted, washed in medium without inhibitor, and further incubated in inhibitor-less medium. The antigen production was measured on days 9 and 12 (ie 1 and 3 days after removal of the inhibitor). Virus production was also measured on days 7, 8, 9, and 12 by determining the amount of reverse transcriptase in the supernatant of the cell medium.
# HIV-1 [2] = system: HIV-1
# Experimental: as §1
# [3] = 0,1 μM, day 9 post infection, no inhibitor (after removal)
# [4] = 0,1 μM, day 12 post infection, no inhibitor (after removal)
# [5] = 1 μM, day 9 post infection, no inhibitor (after removal)
# [6] = 1 μM, day 12 post infection, no inhibitor (after removal)
# [7] = 10 μM, day 9 post infection, no inhibitor (after removal)
# [8] = 10 μM, day 12 post infection, no inhibitor (after removal)
# [9] = 100 μM, day 9 post infection, no inhibitor (after removal)
# [10] = 100 μM, day 12 post infection, no inhibitor (after removal)
# [11] = 1000 μM, day 9 post infection, no inhibitor (after removal)
# [12] = 1000 μM, day 12 post infection, no inhibitor (after removal)
smiles,measurement,setting,value
"CC[C@H](C)[C@H](NC(=O)[C@@H]1CCCN1C(=O)[C@H](Cc1ccccc1)NC(=O)[C@H](C)NC(=O)CNC(=O)CCl)C(=O)N[C@@H](C)C(=O)O [C, Cl--CH2 --CO-Gly-Ala-Phe-Pro-Ile-Ala-OH] (ClAc-GAFPIA-OH)",HIV-1 antigen production as measured in antigen capture ELISA,"HIV-1 [1]; 0,1 μM, day 1 post infection","0,062 o. D."
same,HIV-1 antigen production as measured in antigen capture ELISA,"HIV-1 [1]; 0,1 μM, day 2 post infection","0,069 o. D."
same,HIV-1 antigen production as measured in antigen capture ELISA,"HIV-1 [1]; 0,1 μM, day 3 post infection","0,055 o. D."
same,HIV-1 antigen production as measured in antigen capture ELISA,"HIV-1 [1]; 0,1 μM, day 4 post infection","0,052 o. D."
same,HIV-1 antigen production as measured in antigen capture ELISA,"HIV-1 [1]; 0,1 μM, day 5 post infection","0,054 o. D."
same,HIV-1 antigen production as measured in antigen capture ELISA,"HIV-1 [1]; 0,1 μM, day 6 post infection","0,105 o. D."
same,HIV-1 antigen production as measured in antigen capture ELISA,"HIV-1 [1]; 0,1 μM, day 7 post infection","0,276 o. D."
same,HIV-1 antigen production as measured in antigen capture ELISA,"HIV-1 [1]; 0,1 μM, day 8 post infection","0,336 o. D."
same,HIV-1 antigen production as measured in antigen capture ELISA,HIV-1 [1]; [3],"0,588 o. D."
same,HIV-1 antigen production as measured in antigen capture ELISA,HIV-1 [1]; [4],"1,010 o. D."
same,HIV-1 antigen production as measured in antigen capture ELISA,"HIV-1 [1]; 1 μM, day 1 post infection","0,061 o. D."
same,HIV-1 antigen production as measured in antigen capture ELISA,"HIV-1 [1]; 1 μM, day 2 post infection","0,054 o. D."
same,HIV-1 antigen production as measured in antigen capture ELISA,"HIV-1 [1]; 1 μM, day 3 post infection","0,060 o. D."
same,HIV-1 antigen production as measured in antigen capture ELISA,"HIV-1 [1]; 1 μM, day 4 post infection","0,050 o. D."
same,HIV-1 antigen production as measured in antigen capture ELISA,"HIV-1 [1]; 1 μM, day 5 post infection","0,051 o. D."
same,HIV-1 antigen production as measured in antigen capture ELISA,"HIV-1 [1]; 1 μM, day 6 post infection","0,133 o. D."
same,HIV-1 antigen production as measured in antigen capture ELISA,"HIV-1 [1]; 1 μM, day 7 post infection","0,267 o. D."
same,HIV-1 antigen production as measured in antigen capture ELISA,"HIV-1 [1]; 1 μM, day 8 post infection","0,239 o. D."
same,HIV-1 antigen production as measured in antigen capture ELISA,HIV-1 [1]; [5],"0,808 o. D."
same,HIV-1 antigen production as measured in antigen capture ELISA,HIV-1 [1]; [6],"1,042 o. D."
same,HIV-1 antigen production as measured in antigen capture ELISA,"HIV-1 [1]; 10 μM, day 1 post infection","0,069 o. D."
same,HIV-1 antigen production as measured in antigen capture ELISA,"HIV-1 [1]; 10 μM, day 2 post infection","0,048 o. D."
same,HIV-1 antigen production as measured in antigen capture ELISA,"HIV-1 [1]; 10 μM, day 3 post infection","0,066 o. D."
same,HIV-1 antigen production as measured in antigen capture ELISA,"HIV-1 [1]; 10 μM, day 4 post infection","0,064 o. D."
same,HIV-1 antigen production as measured in antigen capture ELISA,"HIV-1 [1]; 10 μM, day 5 post infection","0,049 o. D."
same,HIV-1 antigen production as measured in antigen capture ELISA,"HIV-1 [1]; 10 μM, day 6 post infection","0,099 o. D."
same,HIV-1 antigen production as measured in antigen capture ELISA,"HIV-1 [1]; 10 μM, day 7 post infection","0,228 o. D."
same,HIV-1 antigen production as measured in antigen capture ELISA,"HIV-1 [1]; 10 μM, day 8 post infection","0,292 o. D."
same,HIV-1 antigen production as measured in antigen capture ELISA,HIV-1 [1]; [7],"0,643 o. D."
same,HIV-1 antigen production as measured in antigen capture ELISA,HIV-1 [1]; [8],"1,040 o. D."
same,HIV-1 antigen production as measured in antigen capture ELISA,"HIV-1 [1]; 100 μM, day 1 post infection","0,064 o. D."
same,HIV-1 antigen production as measured in antigen capture ELISA,"HIV-1 [1]; 100 μM, day 2 post infection","0,056 o. D."
same,HIV-1 antigen production as measured in antigen capture ELISA,"HIV-1 [1]; 100 μM, day 3 post infection","0,062 o. D."
same,HIV-1 antigen production as measured in antigen capture ELISA,"HIV-1 [1]; 100 μM, day 4 post infection","0,053 o. D."
same,HIV-1 antigen production as measured in antigen capture ELISA,"HIV-1 [1]; 100 μM, day 5 post infection","0,061 o. D."
same,HIV-1 antigen production as measured in antigen capture ELISA,"HIV-1 [1]; 100 μM, day 6 post infection","0,100 o. D."
same,HIV-1 antigen production as measured in antigen capture ELISA,"HIV-1 [1]; 100 μM, day 7 post infection","0,265 o. D."
same,HIV-1 antigen production as measured in antigen capture ELISA,"HIV-1 [1]; 100 μM, day 8 post infection","0,296 o. D."
same,HIV-1 antigen production as measured in antigen capture ELISA,HIV-1 [1]; [9],"0,787 o. D."
same,HIV-1 antigen production as measured in antigen capture ELISA,HIV-1 [1]; [10],"0,940 o. D."
same,HIV-1 antigen production as measured in antigen capture ELISA,"HIV-1 [1]; 1000 μM, day 1 post infection","0,071 o. D."
same,HIV-1 antigen production as measured in antigen capture ELISA,"HIV-1 [1]; 1000 μM, day 2 post infection","0,053 o. D."
same,HIV-1 antigen production as measured in antigen capture ELISA,"HIV-1 [1]; 1000 μM, day 3 post infection","0,061 o. D."
same,HIV-1 antigen production as measured in antigen capture ELISA,"HIV-1 [1]; 1000 μM, day 4 post infection","0,057 o. D."
same,HIV-1 antigen production as measured in antigen capture ELISA,"HIV-1 [1]; 1000 μM, day 5 post infection","0,123 o. D."
same,HIV-1 antigen production as measured in antigen capture ELISA,"HIV-1 [1]; 1000 μM, day 6 post infection","0,096 o. D."
same,HIV-1 antigen production as measured in antigen capture ELISA,"HIV-1 [1]; 1000 μM, day 7 post infection","0,415 o. D."
same,HIV-1 antigen production as measured in antigen capture ELISA,"HIV-1 [1]; 1000 μM, day 8 post infection","0,778 o. D."
same,HIV-1 antigen production as measured in antigen capture ELISA,HIV-1 [1]; [11],"1,019 o. D."
same,HIV-1 antigen production as measured in antigen capture ELISA,HIV-1 [1]; [12],"1,000 o. D."
same,"cytotoxic effect for H9 cells, colouration with trypan blue",H9 cells,no cytotoxic effect
same,Reverse Transkriptase Determination,"HIV-1 [2]; 0,1 μM, day 7 post infection",5561 epm/ml
same,Reverse Transkriptase Determination,"HIV-1 [2]; 0,1 μM, day 8 post infection",2314 epm/ml
same,Reverse Transkriptase Determination,HIV-1 [2]; [3],7477 epm/ml
same,Reverse Transkriptase Determination,HIV-1 [2]; [4],113340 epm/ml
same,Reverse Transkriptase Determination,"HIV-1 [2]; 1 μM, day 7 post infection",4575 epm/ml
same,Reverse Transkriptase Determination,"HIV-1 [2]; 1 μM, day 8 post infection",3198 epm/ml
same,Reverse Transkriptase Determination,HIV-1 [2]; [5],4186 epm/ml
same,Reverse Transkriptase Determination,HIV-1 [2]; [6],164240 epm/ml
same,Reverse Transkriptase Determination,"HIV-1 [2]; 10 μM, day 7 post infection",5358 epm/ml
same,Reverse Transkriptase Determination,"HIV-1 [2]; 10 μM, day 8 post infection",4398 epm/ml
same,Reverse Transkriptase Determination,HIV-1 [2]; [7],8823 epm/ml
same,Reverse Transkriptase Determination,HIV-1 [2]; [8],158800 epm/ml
same,Reverse Transkriptase Determination,"HIV-1 [2]; 100 μM, day 7 post infection",3838 epm/ml
same,Reverse Transkriptase Determination,"HIV-1 [2]; 100 μM, day 8 post infection",6370 epm/ml
same,Reverse Transkriptase Determination,HIV-1 [2]; [9],8860 epm/ml
same,Reverse Transkriptase Determination,HIV-1 [2]; [10],96780 epm/ml
same,Reverse Transkriptase Determination,"HIV-1 [2]; 1000 μM, day 7 post infection",7646 epm/ml
same,Reverse Transkriptase Determination,"HIV-1 [2]; 1000 μM, day 8 post infection",4308 epm/ml
same,Reverse Transkriptase Determination,HIV-1 [2]; [11],5343 epm/ml
same,Reverse Transkriptase Determination,HIV-1 [2]; [12],107640 epm/ml
